{"source": "patent US8013016B2", "about": "“Use of acetyl L-carnitine for the treatment of fibromyalgic syndrome” (Sigma-Tau Industrie Farmaceutiche Riunite S.p.A., priority 2004, dated 2011)", "key": {"[1]": {"system": "patients with fibromyalgic syndrome", "assay": "Multicentre, randomized, placebo-controlled, double-blind clinical trial: evoked pain at ACR tender points (Pressure Threshold Meter algometer)", "format": "in vivo, human", "conditions": "for Mean variation compared to baseline (evoked pain at ACR tender points, algometer): N = 42", "experimental": "(§1) A multicentre, randomized, placebo-controlled, double-blind clinical trial was conducted, the aim of which was to evaluate the efficacy of acetyl L-carnitine in patients with fibromyalgic syndrome.\nFor the evaluation of the efficacy of the compound according to the present invention evoked pain was monitored (as measured with the “Pressure Threshold Meter” algometer) in the osteoarticular regions indicated by “The American College of Rheumatology” (ACR) as being “tender points” characteristic of fibromyalgia syndrome. [WOLFE F, SMYTHE H A, YUNUS M B, et al. The American College of Rheumatology Criteria for the classification of fibromyalgia: report of the multicenter criteria committee; Arthritis Rheum 1990; 33(2): 160-172].\nThe patients included in the trial were patients of either gender aged from 25 to 65 years, who matched up to the above-mentioned American College of Rheumatology diagnostic criteria for fibromyalgia syndrome.\nThe diagnostic criteria for fibromyalgic syndrome had to be confirmed by the presence of all four of the following conditions: • bilateral diffuse pain in the axial skeleton; • bilateral diffuse pain in the upper limbs; • bilateral diffuse pain in the lower limbs; • pain located in 11 or more of the 18 anatomical regions listed in the map of tender points (ACR tender points) evoked with a standardised pressure manoeuvre.\nPatients with any one of the following conditions were not recruited into the trial: • presence of infections or inflammatory processes affecting the osteoarticular or tegumental apparatus; • history or presence of clinically important osteoarticular disease capable of confounding the evaluation of the study treatments (e.g. history of trauma); • previous orthopaedic surgery, spondyloarthrosis, connectivitis etc.; • clinical or laboratory evidence of dysthyroidism; • presence of systemic diseases (diabetes, kidney, cardiovascular and respiratory disease, psychiatric illness) or major pathological conditions capable of interfering with the evaluation of the study treatments; • continuous use of anti-inflammatory steroids during the last 3 months prior to the trial; • recent initiation of oestrogen-progestogen hormone replacement therapy (<1 year); • therapy with antidepressant drugs during the last 6 months prior to the trial; • therapy with non-steroidal anti-inflammatory drugs during the last 3 days prior to the trial; • therapy with analgesic drugs during the last 7 days prior to the trial; • participation in a clinical trial during the previous 6 months; • pregnant women, breastfeeding women, or women of childbearing age not adopting an adequate contraceptive method.\nAcetyl L-carnitine was administered for a period of 10 consecutive weeks at a dose of 1,500 mg/day. […]"}, "[2]": {"system": "patients with fibromyalgic syndrome", "assay": "Same clinical trial: secondary clinical parameters assessed with visual analogue scales", "format": "in vivo, human", "conditions": "end of the treatment period (10 weeks), 1,500 mg/day; P<0.05", "experimental": "as §1\nAlso monitored were additional secondary parameters which will be discussed later.\nAcetyl L-carnitine was administered for a period of 10 consecutive weeks at a dose of 1,500 mg/day.\nDuring the first two weeks it was administered at the dose of 500 mg by the intramuscular route (i.m.) and 500 mg (twice daily) by the oral route (os).\nOver the following eight weeks acetyl L-carnitine was administered orally at doses of 500 mg three times daily."}}}
{"smiles": "CC(=O)O[C@H](CC(=O)[O-])C[N+](C)(C)C", "note": "[Acetyl L-carnitine, acetyl L-carnitine]", "values": [{"measurement": "Improvement in pain evoked in the osteoarticular regions (ACR tender points) as compared to the control group", "setting": "[1]; end of therapy (10 weeks), 1,500 mg/day, vs placebo", "result": "statistically significant improvement"}, {"measurement": "Mean variation compared to baseline (evoked pain at ACR tender points, algometer)", "setting": "[1]; visit 2 weeks, 1,500 mg/day (500 mg i.m. + 500 mg twice daily os), placebo 0.16 (0.39)", "result": "0.24 (0.64)"}, {"measurement": "Mean variation compared to baseline (evoked pain at ACR tender points, algometer)", "setting": "[1]; visit 6 weeks, 1,500 mg/day (first 2 weeks i.m. + os, then 500 mg three times daily os), placebo 0.45 (0.57)", "result": "0.55 (0.64)"}, {"measurement": "Mean variation compared to baseline (evoked pain at ACR tender points, algometer)", "setting": "[1]; visit 10 weeks (end of therapy), 1,500 mg/day, placebo 0.34 (0.66), P<0.05 Student's t-test", "result": "0.71 (0.71)"}, {"measurement": "General well-being (visual analogue scale)", "setting": "[2]", "result": "statistically significant improvements"}, {"measurement": "Mental health (visual analogue scale)", "setting": "[2]", "result": "statistically significant improvements"}, {"measurement": "Physical health in general (visual analogue scale)", "setting": "[2]", "result": "statistically significant improvements"}]}
